# From article PMC4965013, “Open Source Drug Discovery with the Malaria Box Compound Collection for Neglected Diseases and Beyond” (PLoS Pathogens, 2016)
# Where “and” joins values, the source holds several entries; their conditions need not be identical. Equal entries are not always repeated.
# Legend:
# [1] = system: bovine Babesia and equine Babesia and Theileria parasites; assay: Babesia and Theileria fluorescence-based assay, all four species; format: cell-based, B. bovis, B. bigemina, T. equi, B. caballi; conditions: for IC50: Babesia, range over compounds and species, read-out: IC50s for both bovine Babesia and equine Babesia and Theileria parasites
# P. falciparum = assay: EC50 listed in S2 Table Metabolomics (used to set the concentration tested); format: cell-based; conditions: Plasmodium falciparum; EC50 used for Factor_XEC50 in metabolomics; read-out: EC50_nM
# PfPMT = PfPMT (Plasmodium falciparum, UniProt Q8IDQ9); assay: PfPMT gene replacement yeast growth; conditions: 100µM
# PfPMT, sequence (Q8IDQ9 whole entry): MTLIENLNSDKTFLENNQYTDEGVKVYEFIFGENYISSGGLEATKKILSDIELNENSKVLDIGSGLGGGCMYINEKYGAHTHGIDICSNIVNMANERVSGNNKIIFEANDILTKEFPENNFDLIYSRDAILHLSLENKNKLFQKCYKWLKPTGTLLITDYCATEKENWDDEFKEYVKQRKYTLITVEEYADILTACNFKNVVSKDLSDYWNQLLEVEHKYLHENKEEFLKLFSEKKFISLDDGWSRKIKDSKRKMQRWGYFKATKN
# [2] = system: NCI60 human tumor cell lines; assay: NCI60 5-dose (dose-response) assay; format: cell-based
# Description: Columns IE-KK. NCI: Misra group (data presented first in this paper). NCI60 anti-tumor cell activity. Methods: […] These 60 cell lines, along with others, have been developed at NCI and have been maintained and distributed for research purposes by NCI for over 25 years. The experimental readout provides both inhibition of cell growth and cell kill. The screen was originally designed to prioritize agents for further evaluation. […] This is the same as for the 5-dose assay, described on http://dtp.cancer.gov/branches/btb/ivclsp.html. […] Testing beyond the initial screen: There were 133 compounds that passed threshold to proceed to 5-dose (dose-response) (data are available for the 133 compounds at the DTP public website (dtp.cancer.gov) by searching either the MMV number or NSC number). After examination of the 5-dose data, 10 compounds were selected for repeat testing based generally on potency, differential cell activity or activity on an individual cell lines or cell line panel. A summary of the data for the 10 compounds of interest is in the table below.
# [3] = system: P. falciparum 3D7 trophozoites; assay: Metabolomic fingerprint profiling LC-MS; format: cell-based, Plasmodium falciparum; set-up: UDP-D-glucose / ADP-D-glucose: unit not given here; conditions: for Acetyllysine / N-acetyl-L-ornithine / N-carbamoyl-L-aspartate / NADPH / dAMP / dCMP / dTDP / dTMP / dTTP / dihydroorotate / orotate / DLH / DLS/SDL/SID / PD / PEE / PVNF / 3-phosphoglycerate / ADP-D-glucose / ATP / CDP / D-sedoheptulose-1/7-phosphate / FAD / GMP / NAD+ / NADP+ / Octoluse Bisphosphate / Pyroglutamic acid / UDP-D-glucose / UDP-D-glucuronate / UDP-N-acetyl-glucosamine / UDP / UMP / UTP / a-ketoglutarate / citrate/isocitrate / cytidine / dATP / dGMP/AMP / fumarate / glucose-1/6-phosphate / glycerate / guanine / guanosine / hypoxanthine / indole / inosine / nicotinate / ornithine / phosphoenolpyruvate / pyruvate / ribose-phosphate / sarcosine/alanine / sn-glycerol-3-phosphate / succinate/methylmalonic acid / uridine / xanthosine: S2 Table Metabolomics; for Acetyllysine: metabolite Acetyllysine; for N-acetyl-L-ornithine: metabolite N-acetyl-L-ornithine; for N-carbamoyl-L-aspartate: metabolite N-carbamoyl-L-aspartate; for NADPH: metabolite NADPH; for dAMP: metabolite dAMP; for dCMP: metabolite dCMP; for dTDP: metabolite dTDP; for dTMP: metabolite dTMP; for dTTP: metabolite dTTP; for dihydroorotate: metabolite dihydroorotate; for orotate: metabolite orotate; for DLH: peptide DLH; for DLS/SDL/SID: peptide DLS/SDL/SID; for PD: peptide PD; for PEE: peptide PEE; for PVNF: peptide PVNF; for 3-phosphoglycerate: metabolite 3-phosphoglycerate; for ADP-D-glucose: metabolite ADP-D-glucose; for ATP: metabolite ATP; for CDP: metabolite CDP; for CDP / D-sedoheptulose-1/7-phosphate / GMP / Octoluse Bisphosphate / UDP / UMP / UTP / citrate/isocitrate / dGMP/AMP / fumarate / glucose-1/6-phosphate / glycerate / guanine / guanosine / inosine / pyruvate / sarcosine/alanine / succinate/methylmalonic acid / uridine / xanthosine: change in metabolite level after compound treatment; for D-sedoheptulose-1/7-phosphate: metabolite D-sedoheptulose-1/7-phosphate; for FAD: metabolite FAD; for GMP: metabolite GMP; for NAD+: metabolite NAD+; for NADP+: metabolite NADP+; for Octoluse Bisphosphate: metabolite Octoluse Bisphosphate; for Pyroglutamic acid: metabolite Pyroglutamic acid; for UDP-D-glucose: metabolite UDP-D-glucose; for UDP-D-glucuronate: metabolite UDP-D-glucuronate; for UDP-N-acetyl-glucosamine: metabolite UDP-N-acetyl-glucosamine; for UDP: metabolite UDP; for UMP: metabolite UMP; for UTP: metabolite UTP; for a-ketoglutarate: metabolite a-ketoglutarate; for citrate/isocitrate: metabolite citrate/isocitrate; for cytidine: metabolite cytidine; for dATP: metabolite dATP; for dGMP/AMP: metabolite dGMP/AMP; for fumarate: metabolite fumarate; for glucose-1/6-phosphate: metabolite glucose-1/6-phosphate; for glycerate: metabolite glycerate; for guanine: metabolite guanine; for guanosine: metabolite guanosine; for hypoxanthine: metabolite hypoxanthine; for indole: metabolite indole; for inosine: metabolite inosine; for 2_3-Diphosphoglyceric acid / 4-phosphopantothenate / 6-phospho-D-gluconate / FMN / IMP / Pyrophosphate / Sedoheptoluse bisphosphate / cyclic-AMP / glutathione disulfide / lactate / myo-inositol: metabolite level change after treatment; for nicotinate: metabolite nicotinate; for ornithine: metabolite ornithine; for phosphoenolpyruvate: metabolite phosphoenolpyruvate; for pyruvate: metabolite pyruvate; for ribose-phosphate: metabolite ribose-phosphate; for sarcosine/alanine: metabolite sarcosine/alanine; for sn-glycerol-3-phosphate: metabolite sn-glycerol-3-phosphate; for succinate/methylmalonic acid: metabolite succinate/methylmalonic acid; for uridine: metabolite uridine; for xanthosine: metabolite xanthosine
# [4] = mean over cell lines of one experiment, listed as 766470/2
smiles,measurement,setting,value
CCCC(c1nnnn1C1CCCCC1)N1CCN(C(=O)c2ccco2)CC1 (stereo not shown) [MMV666093],"anti-Babesia and anti-Theileria hits, IC50 in words",[1],nanomolar IC50s
same,mean selectivity indices (SI),[1],greater than 230
same,IC50,[1],0.043 to 0.75 µM
Cc1cc(N2CCN(C3CCCC3)CC2)n2c(nc3ccccc32)c1C#N [MMV006706],"anti-Babesia and anti-Theileria hits, IC50 in words",[1],nanomolar IC50s
same,mean selectivity indices (SI),[1],greater than 230
same,IC50,[1],0.043 to 0.75 µM
CC(C)(C)CC(C)(C)NCC(O)COc1ccc(Cl)cc1Cl (stereo not shown) [MMV396794],"anti-Babesia and anti-Theileria hits, IC50 in words",[1],nanomolar IC50s
CN(C)c1ccc(N=Cc2ccc(N3CCOCC3)cc2)cc1 [MMV073843],"anti-Babesia and anti-Theileria hits, IC50 in words",[1],nanomolar IC50s
same,mean selectivity indices (SI),[1],greater than 230
same,IC50,[1],0.043 to 0.75 µM
CC(C)CCNCC(O)Cn1c2ccccc2c2ccccc21 (stereo not shown) [MMV006787],"anti-Babesia and anti-Theileria hits, IC50 in words",[1],nanomolar IC50s
Cn1c(=O)n(C)c2cc(CNCCNc3ccnc4cc(Cl)ccc34)ccc21 [MMV665875],"anti-Babesia and anti-Theileria hits, IC50 in words",[1],nanomolar IC50s
same,mean selectivity indices (SI),[1],greater than 230
same,IC50,[1],0.043 to 0.75 µM
COc1ccc(-c2nc3cc(Cc4ccc5[nH]c(-c6ccc(OC)cc6)nc5c4)ccc3[nH]2)cc1 [MMV007384],EC50,P. falciparum,0.176 µM
same,candidate inhibitors of PfPMT activity (yeast functional assay),PfPMT,candidate inhibitors of PfPMT activity
same,Notes (NCI60 5-dose activity pattern),[2],"Colon, differential, potent"
same,MGLI50 = Mean Growth Log I50,"[2]; 5-dose, mean over NCI60 panel",-7.34
same,_MID Log10GI50,[2]; [4],-7.42 Molar and -7.34 Molar
same,_MID Log10LC50,[2]; [4],-5.38 Molar and -5.32 Molar
same,_MID Log10TGI,[2]; [4],-6.22 Molar and -6.17 Molar
same,Acetyllysine,[3],-1.262
same,N-acetyl-L-ornithine,[3],-1.162
same,N-carbamoyl-L-aspartate,[3],-0.09766
same,NADPH,[3],-0.9181
same,dAMP,[3],0.6855
same,dCMP,[3],0.07883
same,dTDP,[3],0.07329
same,dTMP,[3],0.1259
same,dTTP,[3],-0.4561
same,dihydroorotate,[3],0.3461
same,orotate,[3],0.3571
same,DLH,[3],-1.971
same,DLS/SDL/SID,[3],-1.761
same,PD,[3],-1.296
same,PEE,[3],-1.3661
same,PVNF,[3],-1.589
same,3-phosphoglycerate,[3],-0.215
same,ADP-D-glucose,[3],-0.07535
same,ATP,[3],-0.4674
same,CDP,[3],-0.349
same,D-sedoheptulose-1/7-phosphate,[3],-0.5757
same,FAD,[3],-0.3245
same,GMP,[3],-0.4418
same,NAD+,[3],-0.0839
same,NADP+,[3],-0.1415
same,Octoluse Bisphosphate,[3],-0.7079
same,Pyroglutamic acid,[3],1.1726
same,UDP-D-glucose,[3],-0.1169
same,UDP-D-glucuronate,[3],-0.3283
same,UDP-N-acetyl-glucosamine,[3],-0.1799
same,UDP,[3],-0.2172
same,UMP,[3],-0.3886
same,UTP,[3],-0.61
same,a-ketoglutarate,[3],0.7257
same,citrate/isocitrate,[3],1.281
same,cytidine,[3],0.03237
same,dATP,[3],-0.2668
same,dGMP/AMP,[3],0.1319
same,fumarate,[3],0.03505
same,glucose-1/6-phosphate,[3],0.02257
same,glycerate,[3],0.3902
same,guanine,[3],0.5342
same,guanosine,[3],0.3398
same,hypoxanthine,[3],1.128
same,indole,[3],0.6274
same,inosine,[3],0.7464
same,2_3-Diphosphoglyceric acid,[3],-0.7853
same,4-phosphopantothenate,[3],0.02171
same,6-phospho-D-gluconate,[3],-0.4966
same,FMN,[3],-0.1132
same,IMP,[3],-0.008592
same,Pyrophosphate,[3],-0.8081
same,Sedoheptoluse bisphosphate,[3],-0.4298
same,cyclic-AMP,[3],-0.3368
same,glutathione disulfide,[3],-0.6284
same,lactate,[3],0.4073
same,myo-inositol,[3],-0.09775
same,nicotinate,[3],1.038
same,ornithine,[3],0.535
same,phosphoenolpyruvate,[3],0.008692
same,pyruvate,[3],0.9693
same,ribose-phosphate,[3],-0.5692
same,sarcosine/alanine,[3],-0.2789
same,sn-glycerol-3-phosphate,[3],-0.4175
same,succinate/methylmalonic acid,[3],-0.1567
same,uridine,[3],0.8329
same,xanthosine,[3],0.2641
CCOc1ccc(CN2CCN(CC(O)COc3ccc(OCC(O)CN4CCN(Cc5ccc(OCC)cc5)CC4)cc3)CC2)cc1 (stereo not shown) [MMV007092],"anti-Babesia and anti-Theileria hits, IC50 in words",[1],nanomolar IC50s
COc1ccccc1N=C1C(=O)c2ccccc2C(O)=C1N1CCCCC1 [MMV085203],"anti-Babesia and anti-Theileria hits, IC50 in words",[1],nanomolar IC50s
same,Acetyllysine,[3],0.5338
same,N-acetyl-L-ornithine,[3],0.417
same,N-carbamoyl-L-aspartate,[3],-0.03953
same,NADPH,[3],1.905
same,dAMP,[3],0.2134
same,dCMP,[3],-0.3018
same,dTDP,[3],0.1555
same,dTMP,[3],0.3091
same,dTTP,[3],0.09879
same,dihydroorotate,[3],-0.4435
same,orotate,[3],-0.006229
same,DLH,[3],0.05618
same,DLS/SDL/SID,[3],0.215
same,PD,[3],-0.1394
same,PEE,[3],0.002208
same,PVNF,[3],0.05104
same,3-phosphoglycerate,[3],0.03547
same,ADP-D-glucose,[3],-0.1308
same,ATP,[3],0.1374
same,CDP,[3],0.2087
same,D-sedoheptulose-1/7-phosphate,[3],0.1847
same,FAD,[3],-0.04298
same,GMP,[3],0.06518
same,NAD+,[3],-0.0924
same,NADP+,[3],0.08883
same,Octoluse Bisphosphate,[3],0.05889
same,Pyroglutamic acid,[3],0.3327
same,UDP-D-glucose,[3],0.02335
same,UDP-D-glucuronate,[3],0.1307
same,UDP-N-acetyl-glucosamine,[3],-0.006531
same,UDP,[3],0.1215
same,UMP,[3],-0.1092
same,UTP,[3],0.1112
same,a-ketoglutarate,[3],0.6853
same,citrate/isocitrate,[3],0.6482
same,cytidine,[3],-0.04401
same,dATP,[3],0.1251
same,dGMP/AMP,[3],0.1681
same,fumarate,[3],0.1969
same,glucose-1/6-phosphate,[3],-0.1808
same,glycerate,[3],0.6274
same,guanine,[3],0.2252
same,guanosine,[3],0.5678
same,hypoxanthine,[3],0.8131
same,indole,[3],0.6437
same,inosine,[3],0.2953
same,2_3-Diphosphoglyceric acid,[3],0.04377
same,4-phosphopantothenate,[3],0.03169
same,6-phospho-D-gluconate,[3],0.09424
same,FMN,[3],-0.0513
same,IMP,[3],0.06497
same,Pyrophosphate,[3],-0.1041
same,Sedoheptoluse bisphosphate,[3],0.1294
same,cyclic-AMP,[3],0.1643
same,glutathione disulfide,[3],-0.1576
same,lactate,[3],0.4496
same,myo-inositol,[3],0.5579
same,nicotinate,[3],0.3875
same,ornithine,[3],0.05264
same,phosphoenolpyruvate,[3],0.005153
same,pyruvate,[3],1.4601
same,ribose-phosphate,[3],1.0837
same,sarcosine/alanine,[3],0.0342
same,sn-glycerol-3-phosphate,[3],-0.8649
same,succinate/methylmalonic acid,[3],0.5863
same,uridine,[3],0.4561
same,xanthosine,[3],0.5245
